Measured values as given in ChEMBL document CHEMBL2086223 (Bioorg Med Chem Lett, 2012).
pEC50, pKi: −log10 of the molar value. Calls of active or inactive are those of the source. The rule behind the calls is not given here.

Assays:
Homo sapiens = organism: Homo sapiens; experiment: Selectivity ratio of Ki for human 5HT3A receptor to Ki for human 5HT4c receptor
[1] = (§1) Half life in rat liver microsomes
[2] = molecular target: T1, 5-hydroxytryptamine receptor 4 (Homo sapiens, UniProt Q13639); experiment: Agonist activity at human recombinant 5HT4c receptor expressed in HEK293 cells at 10-fold physiological level assessed as accumulation of cAMP relative to 5HT; type: functional, cell-based
[3] = molecular target: T2, 5-hydroxytryptamine receptor 7 (Homo sapiens, UniProt P34969); experiment: Binding affinity to 5HT7 receptor
[4] = molecular target: 5-hydroxytryptamine receptor 4 (Cavia porcellus, UniProt O70528); experiment: Agonist activity at 5HT4 receptor in guinea pig colonic longitudinal muscle/myenteric plexus assessed as contraction
Rattus norvegicus = experiment: Induction of 5HT4-receptor mediated esophagal relaxation in iv dosed Sprague-Dawley rat; type: functional
Cavia porcellus [5] = experiment: Prokinetic activity in guinea pig colon assessed as decrease in carmine red dye transit time at 0.3 mg/kg, sc relative to vehicle-treated control; type: functional, organism-based; set-up: dose 0.3 mg/kg
Cavia porcellus [6] = experiment: Prokinetic activity in sc dosed guinea pig colon assessed as increase in distance traveled by carmine red dye after 60 mins relative to vehicle-treated control; type: functional, organism-based
[7] = Elimination half life in healthy human administered QD; type: ADME, organism-based; settings: in vivo, read-out: beta t1/2 (converted)
[8] = Half life in Sprague-Dawley rat at 5 mg/kg, po; type: ADME, organism-based; set-up: dose 5 mg/kg, route oral; settings: in vivo
[9] = molecular target: T3, 5-hydroxytryptamine receptor 1A (Homo sapiens) (UniProt P08908); experiment: Inhibition of 5HT1A receptor at 10 uM
T3 sequence (whole entry): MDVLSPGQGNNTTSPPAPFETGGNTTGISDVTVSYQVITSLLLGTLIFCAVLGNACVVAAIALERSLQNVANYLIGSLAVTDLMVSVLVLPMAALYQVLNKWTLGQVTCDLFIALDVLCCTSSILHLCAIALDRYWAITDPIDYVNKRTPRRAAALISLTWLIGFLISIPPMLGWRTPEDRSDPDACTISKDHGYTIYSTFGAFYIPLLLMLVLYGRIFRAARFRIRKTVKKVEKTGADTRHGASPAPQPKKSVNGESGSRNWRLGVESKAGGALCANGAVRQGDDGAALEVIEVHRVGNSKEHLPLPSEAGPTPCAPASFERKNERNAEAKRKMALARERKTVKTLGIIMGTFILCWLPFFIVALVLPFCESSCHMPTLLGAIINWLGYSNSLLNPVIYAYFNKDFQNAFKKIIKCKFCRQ

[10] = molecular target: 5-hydroxytryptamine receptor 1B (Homo sapiens) (UniProt P28222); experiment: Inhibition of 5HT1B receptor at 10 uM
[11] = molecular target: 5-hydroxytryptamine receptor 1D (Homo sapiens) (UniProt P28221); experiment: Inhibition of 5HT1D receptor at 10 uM
[12] = molecular target: 5-hydroxytryptamine receptor 2A (Homo sapiens) (UniProt P28223); experiment: Inhibition of 5HT2A receptor at 10 uM
[13] = molecular target: 5-hydroxytryptamine receptor 2B (Homo sapiens) (UniProt P41595); experiment: Inhibition of 5HT2B receptor at 10 uM
[14] = molecular target: T4, 5-hydroxytryptamine receptor 2C (Homo sapiens) (UniProt P28335); experiment: Inhibition of 5HT2C receptor at 10 uM
T4 sequence (whole entry): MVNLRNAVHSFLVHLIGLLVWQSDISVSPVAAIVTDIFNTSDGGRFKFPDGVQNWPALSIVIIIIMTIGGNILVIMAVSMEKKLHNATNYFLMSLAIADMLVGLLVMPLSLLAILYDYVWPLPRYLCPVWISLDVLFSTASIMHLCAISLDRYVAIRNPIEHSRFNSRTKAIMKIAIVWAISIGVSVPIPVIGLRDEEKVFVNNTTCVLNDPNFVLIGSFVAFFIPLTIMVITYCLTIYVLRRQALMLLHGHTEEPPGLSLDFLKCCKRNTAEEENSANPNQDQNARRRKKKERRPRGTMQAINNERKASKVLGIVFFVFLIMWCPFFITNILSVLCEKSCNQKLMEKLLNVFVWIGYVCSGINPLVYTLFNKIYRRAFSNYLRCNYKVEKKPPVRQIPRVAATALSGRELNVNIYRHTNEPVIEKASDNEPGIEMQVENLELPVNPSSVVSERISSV

[15] = molecular target: T5, 5-hydroxytryptamine receptor 3A (Homo sapiens) (UniProt P46098); experiment: Inhibition of 5HT3A receptor at 10 uM
T5 sequence (whole entry): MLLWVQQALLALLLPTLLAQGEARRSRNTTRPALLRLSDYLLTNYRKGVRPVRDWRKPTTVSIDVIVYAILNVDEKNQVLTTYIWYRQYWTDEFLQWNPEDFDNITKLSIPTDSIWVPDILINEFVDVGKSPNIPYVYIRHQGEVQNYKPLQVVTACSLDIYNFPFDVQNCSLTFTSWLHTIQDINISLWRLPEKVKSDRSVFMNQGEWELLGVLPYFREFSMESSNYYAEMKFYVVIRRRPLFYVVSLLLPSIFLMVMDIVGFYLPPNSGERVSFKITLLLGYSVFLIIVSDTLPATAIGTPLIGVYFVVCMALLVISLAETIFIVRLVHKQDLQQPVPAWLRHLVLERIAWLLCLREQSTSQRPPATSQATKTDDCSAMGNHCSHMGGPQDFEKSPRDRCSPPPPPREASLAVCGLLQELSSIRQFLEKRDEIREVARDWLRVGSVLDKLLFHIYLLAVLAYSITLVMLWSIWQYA

[16] = molecular target: 5-hydroxytryptamine receptor 5A (Homo sapiens) (UniProt P47898); experiment: Inhibition of 5HT5A receptor at 10 uM
[17] = molecular target: 5-hydroxytryptamine receptor 6 (Homo sapiens) (UniProt P50406); experiment: Inhibition of 5HT6 receptor at 10 uM
[18] = molecular target: T2, 5-hydroxytryptamine receptor 7; experiment: Inhibition of 5HT7 receptor at 10 uM
in vivo [19] = settings: Sprague-Dawley, rat, po, 5 mg/kg
in vivo [20] = settings: Sprague-Dawley, rat, po, 5 mg/kg; remark: listed apart in the source
[21] = Permeability across human Caco2 cells; settings: Caco-2
[22] = molecular target: T1, 5-hydroxytryptamine receptor 4
[23] = molecular target: T1, 5-hydroxytryptamine receptor 4; experiment: biochemical
Description: Displacement of [3H]GR113808 from human recombinant 5HT4c receptor expressed in HEK293 cells

hERG (KCNH2) = hERG (KCNH2) (Homo sapiens, UniProt Q12809); experiment: Inhibition of human ERG expressed in CHO cells at 3 uM; settings: CHO cells expressing human ERG
Liver microsomes = experiment: as §1; settings: microsomes

hERG (KCNH2), sequence (Q12809 whole entry): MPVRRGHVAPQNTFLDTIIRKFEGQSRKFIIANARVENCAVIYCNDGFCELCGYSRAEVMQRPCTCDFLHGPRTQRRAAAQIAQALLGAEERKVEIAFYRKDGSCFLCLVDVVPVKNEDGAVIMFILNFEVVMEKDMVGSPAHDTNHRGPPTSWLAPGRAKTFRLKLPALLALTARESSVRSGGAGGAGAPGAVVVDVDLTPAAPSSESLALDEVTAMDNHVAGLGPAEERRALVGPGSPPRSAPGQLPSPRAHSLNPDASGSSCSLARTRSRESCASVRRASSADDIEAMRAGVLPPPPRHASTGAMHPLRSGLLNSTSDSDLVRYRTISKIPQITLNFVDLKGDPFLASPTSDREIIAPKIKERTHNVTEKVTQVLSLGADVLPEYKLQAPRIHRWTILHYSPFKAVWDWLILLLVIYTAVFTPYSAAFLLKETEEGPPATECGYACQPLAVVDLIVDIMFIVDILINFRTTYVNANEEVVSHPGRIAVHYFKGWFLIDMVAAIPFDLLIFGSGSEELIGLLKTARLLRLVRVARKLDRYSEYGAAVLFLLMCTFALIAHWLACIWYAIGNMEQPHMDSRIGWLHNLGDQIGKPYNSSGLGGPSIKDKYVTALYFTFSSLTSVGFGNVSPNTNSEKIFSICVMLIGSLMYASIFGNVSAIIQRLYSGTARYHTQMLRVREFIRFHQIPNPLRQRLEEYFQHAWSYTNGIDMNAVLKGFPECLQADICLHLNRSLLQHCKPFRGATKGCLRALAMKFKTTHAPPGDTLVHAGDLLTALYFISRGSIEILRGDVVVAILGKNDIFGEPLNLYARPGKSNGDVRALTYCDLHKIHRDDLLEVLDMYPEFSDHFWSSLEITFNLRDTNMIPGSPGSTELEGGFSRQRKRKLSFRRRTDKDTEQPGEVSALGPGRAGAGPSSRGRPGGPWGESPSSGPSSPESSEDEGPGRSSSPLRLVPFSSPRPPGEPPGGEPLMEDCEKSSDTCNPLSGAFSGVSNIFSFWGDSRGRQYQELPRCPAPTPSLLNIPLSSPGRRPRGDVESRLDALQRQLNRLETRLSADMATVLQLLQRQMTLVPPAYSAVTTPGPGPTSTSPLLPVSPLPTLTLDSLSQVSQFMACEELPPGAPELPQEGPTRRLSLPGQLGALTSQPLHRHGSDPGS
T1 sequence (Q13639 whole entry): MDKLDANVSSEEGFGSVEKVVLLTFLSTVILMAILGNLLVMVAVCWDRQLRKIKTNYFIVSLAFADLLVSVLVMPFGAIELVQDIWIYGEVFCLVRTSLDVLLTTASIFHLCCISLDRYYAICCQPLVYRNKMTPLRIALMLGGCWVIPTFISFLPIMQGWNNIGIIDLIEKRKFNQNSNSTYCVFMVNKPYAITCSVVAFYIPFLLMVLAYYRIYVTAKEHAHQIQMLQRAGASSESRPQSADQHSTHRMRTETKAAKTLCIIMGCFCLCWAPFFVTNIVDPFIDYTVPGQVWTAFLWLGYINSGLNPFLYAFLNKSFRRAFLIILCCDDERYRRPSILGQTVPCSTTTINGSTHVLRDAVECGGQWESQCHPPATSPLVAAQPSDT
T2 sequence (P34969 whole entry): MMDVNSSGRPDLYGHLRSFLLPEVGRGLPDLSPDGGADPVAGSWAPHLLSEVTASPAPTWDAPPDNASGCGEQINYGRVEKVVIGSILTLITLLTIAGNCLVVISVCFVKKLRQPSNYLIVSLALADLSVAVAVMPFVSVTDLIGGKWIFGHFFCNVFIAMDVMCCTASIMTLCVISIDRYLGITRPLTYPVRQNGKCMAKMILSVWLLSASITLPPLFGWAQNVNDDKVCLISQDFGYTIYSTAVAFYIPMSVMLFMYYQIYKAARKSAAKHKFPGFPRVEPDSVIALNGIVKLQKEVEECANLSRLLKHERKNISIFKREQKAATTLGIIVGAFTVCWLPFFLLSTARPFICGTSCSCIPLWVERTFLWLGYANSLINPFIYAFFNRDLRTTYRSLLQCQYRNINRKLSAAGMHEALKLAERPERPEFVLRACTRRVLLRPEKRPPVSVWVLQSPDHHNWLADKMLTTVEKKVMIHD
5-hydroxytryptamine receptor 6 (Homo sapiens), sequence (P50406 whole entry): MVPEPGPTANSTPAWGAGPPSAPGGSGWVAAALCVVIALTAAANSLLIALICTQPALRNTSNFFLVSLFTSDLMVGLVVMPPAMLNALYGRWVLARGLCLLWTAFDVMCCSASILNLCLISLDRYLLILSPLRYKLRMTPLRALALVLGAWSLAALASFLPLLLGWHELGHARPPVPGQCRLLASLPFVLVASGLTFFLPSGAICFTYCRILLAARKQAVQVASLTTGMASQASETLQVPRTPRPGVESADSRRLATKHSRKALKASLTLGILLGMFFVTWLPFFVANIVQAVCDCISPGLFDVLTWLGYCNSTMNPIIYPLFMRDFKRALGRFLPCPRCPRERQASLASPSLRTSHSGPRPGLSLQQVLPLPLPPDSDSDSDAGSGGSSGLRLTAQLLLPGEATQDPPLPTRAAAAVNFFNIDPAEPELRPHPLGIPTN
5-hydroxytryptamine receptor 1B (Homo sapiens), sequence (P28222 whole entry): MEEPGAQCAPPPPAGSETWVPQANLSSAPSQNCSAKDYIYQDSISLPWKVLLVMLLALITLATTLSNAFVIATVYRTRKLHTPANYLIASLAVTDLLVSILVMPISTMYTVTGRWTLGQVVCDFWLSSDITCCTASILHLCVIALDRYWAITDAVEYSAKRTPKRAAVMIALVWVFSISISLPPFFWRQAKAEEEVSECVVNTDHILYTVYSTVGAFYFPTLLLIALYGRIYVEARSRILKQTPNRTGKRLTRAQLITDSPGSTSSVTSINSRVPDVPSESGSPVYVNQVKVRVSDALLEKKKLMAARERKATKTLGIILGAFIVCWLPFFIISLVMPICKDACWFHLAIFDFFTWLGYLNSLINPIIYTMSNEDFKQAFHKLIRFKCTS
5-hydroxytryptamine receptor 2B (Homo sapiens), sequence (P41595 whole entry): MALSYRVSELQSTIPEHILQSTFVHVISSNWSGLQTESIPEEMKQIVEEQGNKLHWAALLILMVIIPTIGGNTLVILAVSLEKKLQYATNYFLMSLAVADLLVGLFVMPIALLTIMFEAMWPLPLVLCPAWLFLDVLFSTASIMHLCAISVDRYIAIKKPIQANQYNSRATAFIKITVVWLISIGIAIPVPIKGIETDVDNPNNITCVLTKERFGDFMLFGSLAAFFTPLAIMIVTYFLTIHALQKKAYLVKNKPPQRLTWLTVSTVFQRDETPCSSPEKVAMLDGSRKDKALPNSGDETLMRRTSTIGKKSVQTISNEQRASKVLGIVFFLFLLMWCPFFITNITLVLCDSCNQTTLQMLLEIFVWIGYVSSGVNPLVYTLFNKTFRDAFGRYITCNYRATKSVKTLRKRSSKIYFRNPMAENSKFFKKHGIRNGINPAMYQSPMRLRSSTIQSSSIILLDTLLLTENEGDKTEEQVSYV
5-hydroxytryptamine receptor 4 (Cavia porcellus, UniProt O70528), sequence (O70528 whole entry): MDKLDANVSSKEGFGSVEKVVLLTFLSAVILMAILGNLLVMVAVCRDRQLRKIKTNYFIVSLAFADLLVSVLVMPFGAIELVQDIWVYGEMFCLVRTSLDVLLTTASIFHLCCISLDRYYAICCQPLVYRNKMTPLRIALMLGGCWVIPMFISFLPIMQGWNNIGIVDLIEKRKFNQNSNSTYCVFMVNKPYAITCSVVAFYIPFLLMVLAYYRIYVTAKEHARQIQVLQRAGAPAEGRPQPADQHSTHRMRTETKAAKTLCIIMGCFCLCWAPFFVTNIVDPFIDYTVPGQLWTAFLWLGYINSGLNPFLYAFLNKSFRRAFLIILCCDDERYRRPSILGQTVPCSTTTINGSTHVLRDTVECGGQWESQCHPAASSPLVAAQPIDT
5-hydroxytryptamine receptor 2A (Homo sapiens), sequence (P28223 whole entry): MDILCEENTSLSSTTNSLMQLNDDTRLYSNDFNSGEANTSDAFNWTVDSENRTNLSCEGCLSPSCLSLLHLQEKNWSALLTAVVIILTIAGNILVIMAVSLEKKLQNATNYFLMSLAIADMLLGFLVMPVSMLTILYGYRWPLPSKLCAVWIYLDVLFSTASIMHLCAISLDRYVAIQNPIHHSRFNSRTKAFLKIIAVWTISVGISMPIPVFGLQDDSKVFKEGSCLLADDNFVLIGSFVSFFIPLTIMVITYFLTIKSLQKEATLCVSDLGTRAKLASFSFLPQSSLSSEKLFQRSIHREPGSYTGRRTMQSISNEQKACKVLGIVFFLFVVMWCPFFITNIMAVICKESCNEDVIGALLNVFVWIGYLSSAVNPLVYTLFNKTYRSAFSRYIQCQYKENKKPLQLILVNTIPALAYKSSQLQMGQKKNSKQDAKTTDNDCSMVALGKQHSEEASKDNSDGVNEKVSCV
5-hydroxytryptamine receptor 5A (Homo sapiens), sequence (P47898 whole entry): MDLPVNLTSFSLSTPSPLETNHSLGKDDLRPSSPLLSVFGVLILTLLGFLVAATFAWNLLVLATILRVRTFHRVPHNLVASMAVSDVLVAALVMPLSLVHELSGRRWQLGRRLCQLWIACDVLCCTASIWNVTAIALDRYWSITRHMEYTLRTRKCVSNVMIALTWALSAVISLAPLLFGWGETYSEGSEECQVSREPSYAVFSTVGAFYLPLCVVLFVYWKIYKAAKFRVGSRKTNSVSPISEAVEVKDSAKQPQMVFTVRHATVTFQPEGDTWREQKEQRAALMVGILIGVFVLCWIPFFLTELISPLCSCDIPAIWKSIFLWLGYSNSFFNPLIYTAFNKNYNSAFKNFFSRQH
5-hydroxytryptamine receptor 1D (Homo sapiens), sequence (P28221 whole entry): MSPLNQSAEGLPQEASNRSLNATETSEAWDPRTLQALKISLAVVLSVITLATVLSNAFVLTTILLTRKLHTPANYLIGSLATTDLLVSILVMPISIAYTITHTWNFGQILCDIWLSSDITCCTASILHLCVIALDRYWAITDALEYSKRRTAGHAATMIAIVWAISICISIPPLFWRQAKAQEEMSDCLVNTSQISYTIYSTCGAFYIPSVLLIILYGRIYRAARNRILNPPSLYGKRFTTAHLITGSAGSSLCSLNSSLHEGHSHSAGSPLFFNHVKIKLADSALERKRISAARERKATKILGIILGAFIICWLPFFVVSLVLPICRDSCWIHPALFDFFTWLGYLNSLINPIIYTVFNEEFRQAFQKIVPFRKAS

| SMILES | Ratio Ki (Homo sapiens) | half-life ([1]; liver microsomes) [h] | Intrinsic activity [2] | Papp [21] [×10⁻⁶ cm/s] | pEC50 [22] | pKi [23] | also measured |
| --- | --- | --- | --- | --- | --- | --- | --- |
| CC(=O)N1CCN(CCN2[C@@H]3CC[C@H]2C[C@@H](NC(=O)c2nn(C(C)C)c4ccccc24)C3)CC1 | 980 | > 1.5 | – | – | – | – | – |
| CC(C)n1c(=O)c(C(=O)N[C@H]2C[C@H]3CC[C@@H](C2)N3C[C@H](O)CN(C)S(C)(=O)=O)cc2ccccc21 | – | > 1.5 | 97% | – | – | – | – |
| CC(C)n1c(=O)c(C(=O)N[C@H]2C[C@H]3CC[C@@H](C2)N3C[C@@H](O)CN(C)S(C)(=O)=O)cc2ccccc21 | – | > 1.5 | 95% | – | – | – | pKi [3]: > 7.00; pEC50 [4]: 7.90; Activity (Rattus norvegicus): Dose-dependent effect; ED50 (Rattus norvegicus): 0.025 mg/kg; Activity (Cavia porcellus [5]): Active; Activity (Cavia porcellus [6]): Active; half-life [7]: 12 h; half-life [8]: 1.9 h; inhibition [9]: < 50%; inhibition [10]: < 50%; inhibition [11]: < 50%; inhibition [12]: < 50%; inhibition [13]: < 50%; inhibition [14]: < 50%; inhibition [15]: < 50%; inhibition [16]: < 50%; inhibition [17]: < 50%; inhibition [18]: < 50%; Cmax (in vivo [19]): 160 ng/mL; AUC(0-t) (in vivo [20]): 460 ng·h/mL |
| CC(C)n1c(=O)c(C(=O)N[C@H]2C[C@H]3CC[C@@H](C2)N3C[C@@H](O)CN2CCN(S(C)(=O)=O)CC2)cc2ccccc21 | 7400 | – | 114% | – | – | – | half-life ([1]; microsomes): > 1.5 h |
| CNC(=O)NCC(O)CN1[C@@H]2CC[C@H]1C[C@@H](NC(=O)c1cc3ccccc3n(C(C)C)c1=O)C2 (mixture of isomers) | 2400 | > 1.5 | 82% | – | 7.90 | 7.60 | – |
| CC(C)n1c(=O)c(C(=O)N[C@H]2C[C@H]3CC[C@@H](C2)N3CC(O)CNS(C)(=O)=O)cc2ccccc21 (mixture of isomers) | 1200 | – | 107% | – | 8.10 | 7.70 | inhibition at 3 µM (hERG (KCNH2)): 10% |
| CC(C)n1c(=O)c(C(=O)N[C@H]2C[C@H]3CC[C@@H](C2)N3CC(O)CN(C)S(C)(=O)=O)cc2ccccc21 (mixture of isomers) | – | > 1.5 | 96% | – | – | – | – |
| COc1cc(N)c(Cl)cc1C(=O)N[C@H]1CCN(CCCOc2ccc(F)cc2)C[C@H]1OC (relative stereo) [REL-CISAPRIDE] | – | – | 71 | – | – | – | t1/2 (Liver microsomes): 0.783 h |
| CCCCCNC(=N)N/N=C/c1c[nH]c2ccc(OC)cc12 [TEGASEROD] | 580 | > 1.5 | 92% | – | 8.60 | – | ED50 (Rattus norvegicus): 0.011 mg/kg |

Further lines, with some results ahead:

| Ratio Ki (Homo sapiens) | half-life ([1]; liver microsomes) [h] | Intrinsic activity [2] | Papp [21] [×10⁻⁶ cm/s] | pEC50 [22] | pKi [23] | SMILES | also measured |
| --- | --- | --- | --- | --- | --- | --- | --- |
| 2200 | > 1.5 | 96% | 6 | 8.20 | 7.50 | CC(=O)NCC(O)CN1[C@@H]2CC[C@H]1C[C@@H](NC(=O)c1cc3ccccc3n(C(C)C)c1=O)C2 (mixture of isomers) | – |
| 1500 | > 1.5 | 95% | 16 | 7.90 | 7.40 | CC(=O)N(C)CC(O)CN1[C@@H]2CC[C@H]1C[C@@H](NC(=O)c1cc3ccccc3n(C(C)C)c1=O)C2 (mixture of isomers) | inhibition at 3 µM (hERG (KCNH2)): 11% |
| 3300 | > 1.5 | 82% | – | 8.30 | 7.80 | CC(C)n1c(=O)c(C(=O)N[C@H]2C[C@H]3CC[C@@H](C2)N3CC(O)CNC(N)=O)cc2ccccc21 (mixture of isomers) | – |
| 1800 | – | 95% | 1 | 7.70 | 7.30 | CC(C)n1c(=O)c(C(=O)N[C@H]2C[C@H]3CC[C@@H](C2)N3CC(O)CN(C)C(N)=O)cc2ccccc21 (mixture of isomers) | half-life ([1]; microsomes): > 1.5 h |
| 870 | – | 95% | – | 7.50 | 7.00 | CNC(=O)N(C)CC(O)CN1[C@@H]2CC[C@H]1C[C@@H](NC(=O)c1cc3ccccc3n(C(C)C)c1=O)C2 (mixture of isomers) | – |
| 860 | > 1.5 | – | 3 | – | 7.00 | CC(C)n1c(=O)c(C(=O)N[C@H]2C[C@H]3CC[C@@H](C2)N3CC(O)CNC(=O)N(C)C)cc2ccccc21 (mixture of isomers) | – |
| 260 | > 1.5 | 87% | 33 | 7.70 | 7.30 | CC(C)n1c(=O)c(C(=O)N[C@H]2C[C@H]3CC[C@@H](C2)N3CC(O)CN(C)C(=O)N(C)C)cc2ccccc21 (mixture of isomers) | inhibition at 3 µM (hERG (KCNH2)): 64% |
| 1600 | – | – | 35 | – | 7.30 | COC(=O)NCC(O)CN1[C@@H]2CC[C@H]1C[C@@H](NC(=O)c1cc3ccccc3n(C(C)C)c1=O)C2 (mixture of isomers) | inhibition at 3 µM (hERG (KCNH2)): 74%; half-life ([1]; microsomes): > 1.5 h |
| 710 | > 1.5 | 84% | 35 | 8.00 | 7.40 | COC(=O)N(C)CC(O)CN1[C@@H]2CC[C@H]1C[C@@H](NC(=O)c1cc3ccccc3n(C(C)C)c1=O)C2 (mixture of isomers) | inhibition at 3 µM (hERG (KCNH2)): 40% |
